Source: the supplement of paper PMC10307832

Assays:
Experiment in all cases: relative viability (nuclei count vs DMSO), 5 days (fraction); higher = more cells survive
Etoposide + Palbociclib = compound: COc1cc([C@@H]2c3cc4c(cc3[C@@H](O[C@@H]3O[C@@H]5CO[C@@H](C)O[C@H]5[C@H](O)[C@H]3O)[C@H]3COC(=O)[C@H]23)OCO4)cc(OC)c1O [Etoposide] + CC(=O)c1c(C)c2cnc(Nc3ccc(N4CCNCC4)cn3)nc2n(C2CCCC2)c1=O [Palbociclib] (partner 0.5 µM)
Procedure, shortened: (§1)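 Relative viability equals treated-well nuclei counts divided by vehicle-well nuclei counts. Counts came from 4× images of lung cancer cell lines grown in 1536-well plates for 5 days after pin-tool dosing on the day after seeding. Dosing used one drug alone or a fixed anchor-drug dose plus five library-drug doses (not always all listed) in √10 steps, and values are medians of duplicate plates.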

Bleomycin + AZD7762 = compound: CC1=C(N=C(N=C1N)[C@H](CC(=O)N)NC[C@@H](C(=O)N)N)C(=O)N[C@@H]([C@H](C2=CN=CN2)OC3C(C(C(C(O3)CO)O)O)OC4C(C(C(C(O4)CO)O)OC(=O)N)O)C(=O)N[C@H](C)[C@H]([C@H](C)C(=O)N[C@@H]([C@@H](C)O)C(=O)NCCC5=NC(=CS5)C6=NC(=CS6)C(=O)NCCC[S+](C)C)O [Bleomycin] + NC(=O)Nc1cc(-c2cccc(F)c2)sc1C(=O)N[C@H]1CCCNC1 [AZD7762] (partner 0.2 µM); conditions: main component drawn
Procedure, shortened: as §1

Bleomycin + Palbociclib = compound: CC1=C(N=C(N=C1N)[C@H](CC(=O)N)NC[C@@H](C(=O)N)N)C(=O)N[C@@H]([C@H](C2=CN=CN2)OC3C(C(C(C(O3)CO)O)O)OC4C(C(C(C(O4)CO)O)OC(=O)N)O)C(=O)N[C@H](C)[C@H]([C@H](C)C(=O)N[C@@H]([C@@H](C)O)C(=O)NCCC5=NC(=CS5)C6=NC(=CS6)C(=O)NCCC[S+](C)C)O [Bleomycin] + CC(=O)c1c(C)c2cnc(Nc3ccc(N4CCNCC4)cn3)nc2n(C2CCCC2)c1=O [Palbociclib] (partner 0.5 µM); conditions: main component drawn
Procedure, shortened: as §1

Bleomycin + Luminespib = compound: CC1=C(N=C(N=C1N)[C@H](CC(=O)N)NC[C@@H](C(=O)N)N)C(=O)N[C@@H]([C@H](C2=CN=CN2)OC3C(C(C(C(O3)CO)O)O)OC4C(C(C(C(O4)CO)O)OC(=O)N)O)C(=O)N[C@H](C)[C@H]([C@H](C)C(=O)N[C@@H]([C@@H](C)O)C(=O)NCCC5=NC(=CS5)C6=NC(=CS6)C(=O)NCCC[S+](C)C)O [Bleomycin] + CCNC(=O)c1noc(-c2cc(C(C)C)c(O)cc2O)c1-c1ccc(CN2CCOCC2)cc1 [Luminespib] (partner 0.01 µM); conditions: main component drawn
Procedure, shortened: as §1

Cell Line	relative viability (Etoposide + Palbociclib; first compound 0.01 µM)	relative viability (Etoposide + Palbociclib; first compound 0.03162 µM)	relative viability (Etoposide + Palbociclib; first compound 0.1 µM)	relative viability (Etoposide + Palbociclib; first compound 0.3162 µM)	relative viability (Etoposide + Palbociclib; first compound 1 µM)	relative viability (Bleomycin + AZD7762; first compound 0.01 µM)	relative viability (Bleomycin + AZD7762; first compound 0.03162 µM)	relative viability (Bleomycin + AZD7762; first compound 0.1 µM)	relative viability (Bleomycin + AZD7762; first compound 0.3162 µM)	relative viability (Bleomycin + AZD7762; first compound 1 µM)	relative viability (Bleomycin + Palbociclib; first compound 0.01 µM)	relative viability (Bleomycin + Palbociclib; first compound 0.03162 µM)	relative viability (Bleomycin + Palbociclib; first compound 0.1 µM)	relative viability (Bleomycin + Palbociclib; first compound 0.3162 µM)	relative viability (Bleomycin + Palbociclib; first compound 1 µM)	relative viability (Bleomycin + Luminespib; first compound 0.01 µM)	relative viability (Bleomycin + Luminespib; first compound 0.03162 µM)	relative viability (Bleomycin + Luminespib; first compound 0.1 µM)	relative viability (Bleomycin + Luminespib; first compound 0.3162 µM)	relative viability (Bleomycin + Luminespib; first compound 1 µM)
HCC-44	0.99	0.94	1.02	0.947	0.701	0.955	1	0.965	0.646	0.573	0.861	0.821	0.64	0.455	0.382	0.39	0.277	0.261	0.187	0.239
HCC-827	0.418	0.475	0.341	0.161	0.156	0.195	–	0.199	0.148	0.167	0.46	–	0.611	0.243	0.18	0.525	0.576	0.377	0.39	0.233
NCI-H1623	–	–	–	–	–	–	–	–	–	–	–	–	–	–	–	0.396	0.474	0.525	0.343	0.31
NCI-H2405	0.536	0.549	0.355	0.477	0.328	0.668	0.683	0.632	0.531	0.304	0.424	0.502	0.544	0.346	0.323	0.651	0.697	0.589	0.347	0.358
PC-3 [JPC-3]	0.481	0.493	0.545	0.56	0.526	0.727	0.691	0.768	0.513	0.428	0.487	0.596	0.525	0.53	0.488	0.685	0.665	0.621	0.55	0.418
NCI-H1651	0.512	0.515	0.414	0.359	0.178	0.484	0.46	0.323	0.266	0.219	0.488	0.454	0.464	0.288	0.252	0.538	0.574	0.402	0.257	0.205
HARA	0.242	0.335	0.245	0.269	0.203	0.281	0.299	0.306	0.226	0.244	0.219	0.291	0.252	0.188	0.197	0.682	0.751	0.705	0.442	0.543
NCI-H1650	0.376	0.36	0.26	0.199	0.168	–	–	–	–	–	0.215	0.222	0.153	0.176	0.191	0.172	0.213	0.213	0.18	0.188
